Data taken from patent US9109001B2, “3′,5′-cyclic phosphoramidate prodrugs for HCV infection” (priority 2012, dated 2015).

Tests used:
[1] = Stability in simulated intestinal fluid; type: in vitro ADME; conditions: 100 μM, 2 hours at 37° C.; percent of peak area at time zero
Method: Stability in Simulated Gastric and Intestinal Fluids: Simulated gastric and intestinal fluids containing pepsin and pancreatin respectively were prepared according to the U.S. Pharmacopoeia USP291 procedure (www.pharmacopeia.cn/v29240/usp29nf24s0_ris1s126.html). Test compound (final concentration 100 μM) was incubated in duplicate in the appropriate fluid for 2 hours at 37° C. The samples were quenched with 200 μl cold acetonitrile, vortexed for 30 seconds and then centrifuged at 16,100 g for 10 min. The supernatants were analyzed by HPLC on a C-18 column with UV detection at 252 nm. The time 0 samples were prepared by adding SGF or SIF fluid to the quenching solvent followed by the test compound. Stability of the compound was determined by peak area the test compound after incubation and calculated as percent of the peak area observed at time zero.

[2] = Stability in mouse blood; type: in vitro ADME; conditions: on ice, percent unchanged test compound
Method: Stability in Fresh Whole Blood: Stability of test compounds were determined in fresh human whole blood with K2EDTA as the anticoagulant (stored refrigerated at 2-8° C. and used within 7 days of receipt). The experiment was conducted with three replicates for each time point. Whole blood, pre-incubated at 37° C. for 10-15 minutes, was fortified with a solution of test compound for a final concentration of 0.5 μM and mixed for 30 sec. At intervals (0, 0.5, 1 and 2 hr), three 50-μL aliquots were combined with 200 μL (each) of an ice-cold solution of the internal standard (carbutamide 500 ng/mL in acetonitrile). The samples were vortexed for 30 sec and then centrifuged at 16,100 g for 5 min. The supernatant was analyzed by LC-MS/MS. The MS peak area ratio of the test compound versus the internal standard was calculated and percent unchanged test compound was calculated for each time point using this ratio.
The stability in mouse blood was determined on ice at 0, 0.5 and 1 hr as above.

[3] = Stability in human liver microsomes; type: in vitro ADME; conditions: 10 μM, 1.0 mg/mL protein, NADPH, 60 min; percent unchanged
Method: (§1) Stability in Liver and Intestinal Subcellular Fractions: Stability of test compounds were determined in subcellular fractions (microsomes and S9) of human liver and intestine in duplicate for each matrix. Pooled liver and intestinal microsomal, intestinal and liver S9 proteins (1.0 mg/mL), suspended in incubation buffer (100 mM potassium phosphate, pH 7.4, 5 mM MgCl2, and 0.1 mM EDTA), were preincubated for 5 min at 37° C. with 10 μM of a test compound from a 10 mM stock solution in DMSO (final DMSO concentration was 0.1%); the reaction was initiated by the addition of NADPH (3 mM final concentration). At specific times (0 and 60 min), 0.1 mL samples were taken and the reaction terminated by the addition of 4 volumes of stop solution (acetonitrile with 500 ng/mL carbutamide as an internal standard). The samples were vortexed for 30 sec and then centrifuged at 16,000 g for 10 min. 100 μL of supernatants were transferred to 96 deep-well plates preloaded with 100 μL distilled water and analyzed after mixing by LC-MS/MS. The MS peak area ratio of the test compound versus the internal standard was calculated and percent unchanged test compound over 60 minutes was calculated using this ratio.

[4] = Stability in human liver S9 fraction; type: in vitro ADME; conditions: 10 μM, 1.0 mg/mL protein, NADPH, 60 min; percent unchanged
Method: as §1

[5] = test system: fresh human hepatocytes; assay: Release of active metabolite in fresh human hepatocytes; type: in vitro ADME; conditions: 10 μM
Method: (§2) Assay for the Release of Active Metabolite in Primary Hepatocytes: Plates of fresh human and mouse hepatocytes were obtained on ice. The medium was removed and replaced with hepatocyte culture medium (William's E supplemented with penicillin-streptomycin, 1% L-glutamine, 1% insulin-transferrin-selenium and 0.1 μM Dexamethasone (Invitrogen) or with Invitro GRO HI medium complemented with Torpedo antibiotics (Celsis)). Cells were left overnight in an incubator at 37° C. to acclimatize to culture and the medium.
(§3) Hepatocyte incubations were conducted at a final volume of 0.5 mL hepatocyte culture medium/well (0.8 million cells/well for human and 0.5 million cells/well for mouse; 12 well plate no overlay, collagen coat). Culture medium from overnight incubation of cells was removed and replaced with fresh medium, pre-warmed to 37° C., containing 10 μM of test compound from a stock solution in DMSO (final DMSO concentration was 0.1%). At each specific time point, incubation medium was removed and cell monolayers were carefully washed two times with ice-cold PBS. Following the last wash, all PBS was carefully removed and 1.0 mL of extraction solution (ice-cold 70% methanol/30% water) added. Cells were scraped off and suspended in the extraction solution, transferred to 2 mL polypropylene microfuge tubes and intracellular contents extracted overnight at −20° C.
(§4) After the overnight treatment the cellular extracts were prepared by centrifugation at 16,000×g for 10 min to remove cellular debris. The remaining sample was then dried using a refrigerated centrivap concentrator. Dry extracts were reconstituted in 1000 μL of HPLC-grade water and centrifuged at 16,000×g for 10 min. Aliquots (100 μL each) of the supernatant were transferred into a 96 well plate and internal standard (4 ng/mL final concentration) was added as the internal standard (IS) for LC-MS/MS analysis.
(§5) The incubation time points were 6, 24 and 48 hours for human hepatocytes and 1, 4, 8, 12 and 24 hours for mouse hepatocytes.

[6] = test system: mouse hepatocytes; assay: Release of active metabolite in mouse hepatocytes; type: in vitro ADME; conditions: 10 μM
Method: as §2, §3, §4, §5

[7] = Plasma and liver pharmacokinetics following a single oral dose in CD-1 mice; type: in vivo; conditions: CD-1 male mice; for Ms Liver 2′-MeGTP AUC (pmol · hr/g at 1 μmol/kg): single oral dose 25 mg/kg in PEG 200, liver 2′-MeGTP; for Ms Plasma 2′-MeG AUC (pmol · hr/mL at 1 μmol/kg) / Ms Plasma 2′-MeG Cmax (pmol/mL at 1 μmol/kg): single oral dose 25 mg/kg in PEG 200, plasma 2′-MeG
Method: Plasma samples were analyzed for 2′-methylguanosine (2′-MeG) by LC-MS/MS. The internal standard (IS) was 2′-MeG-D3. For protein precipitation and extraction, each plasma sample (50 μL) was treated with 500 μL of 0.2% formic acid in acetonitrile and 20 μL of the internal standard working solution. After vortexing and centrifugation, 500 μL of the sample extracts were transferred to a new plate, dried under N2 at ˜28° C. and reconstituted with 75 μL of 0.2% FA in water. The extracts were chromatographed on an Aquasil C18 column using a gradient system of 0.2% formic acid in water and acetonitrile. The analytes were detected and quantified by tandem mass spectrometry in positive ion mode on an MDS Sciex API5000 equipped with a Turbo Ionspray® interface. The calibration range was 0.500 (LLOQ) to 200 ng/mL in mouse plasma. The corresponding range for molar units is 1.68 to 673 pmol/mL.
Liver samples were analyzed for the active species 2′-methylguanosine triphosphate (2′-MeGTP) by LC-MS/MS. […] Internal standard solution was added to the homogenate followed by neutralization with 20% ammonium hydroxide solution and addition of 500 μL 1% formic acid. The tissue samples were extracted by weak anion exchange solid phase extraction (SPE). Post extraction, the eluates were evaporated under nitrogen, followed by reconstitution before injection onto the LC-MS/MS system. […] The calibration range was 10 to 10000 pmol/mL in mouse liver homogenate (50 to 50000 pmol/g of mouse liver).

Row | SMILES | Stability SIF [1] [%] | Stability WB_Mouse (ice; 1 hr) [2] [%] | Stability HLM (1 hr) [3] [%] | Stability HLS9 (1 hr) [4] [%] | FHH TP AUC (pmol · hr/mill cells) [5] [pmol · hr/mill cells] | FHH TP Cmax (pmol/mill cells) [5] [pmol/mill cells] | FHH TP (24 hr) ([5]; 24 hr) | MsH AUC (pmol · hr/mill cells) [6] [pmol · hr/mill cells] | MsH Cmax (pmol/mill cells) [6] [pmol/mill cells] | Ms Liver 2′-MeGTP AUC (pmol · hr/g at 1 μmol/kg) [7] [pmol · hr/g at 1 μmol/kg] | Ms Plasma 2′-MeG AUC (pmol · hr/mL at 1 μmol/kg) [7] [pmol · hr/mL at 1 μmol/kg] | Ms Plasma 2′-MeG Cmax (pmol/mL at 1 μmol/kg) [7] [pmol/mL at 1 μmol/kg] | FHH TP (48 hr) ([5]; 48 hr)
1 | CCOc1nc(N)nc2c1ncn2[C@@H]1O[C@@H]2COP(=O)(N[C@@H](C)C(=O)OC(C)C)O[C@H]2[C@@]1(C)F (single isomer, unassigned) [Compound 1 Diastereomer 1] | 83 | 92 | 11 | 51 | 9842 | 687 | BLD^a | 4700 | 2296 | 2400 | 110 | 14 | 
2 | CCOc1nc(N)nc2c1ncn2[C@@H]1O[C@@H]2COP(=O)(N[C@@H](C)C(=O)OC(C)C)O[C@H]2[C@@]1(C)F (single isomer, unassigned) [Compound 1 Diastereomer 2] | 2 | 36 | 52 | 66 | 5774 | 309 |  | 1451 | 884 | 810 | 92 | 9.8 | BLD^a
